According to patent publication US5990173A, “2,3,5-trimethyl-4-hydroxyanilide derivatives, preparation thereof and therapeutical use thereof” (Pierre Fabre Medicament, priority 1995, dated 1999):
Read-outs that look alike come from different tables or passages of the source.

Columns and labels:
[1] = tested on: hepatic microsomal lipids (rat liver microsomes); experiment: Antioxidant activity: chemical peroxidation of hepatic microsomal lipids (TBARS); assay type: biochemical; settings: Fe3+/ADP/dihydroxyfumaric acid
From the text: a) Chemical peroxidation.
In the presence of Fe^3+ and ADP, dihydroxyfumaric acid undergoes an autoxidation which generates oxygen free radicals. The latter bring about the peroxidation of hepatic microsomal lipids.

Human LDL = experiment: Antioxidant activity: oxidation of LDL by CuSO4 (TBARS); assay type: biochemical; settings: human LDL oxidized with 10 μM CuSO4, 6 hours, TBARS at 532 nm
plasma cholesterol = experiment: Hypocholesterolemic activity in rats on a hypercholesterolemic diet; assay type: in vivo, rat; settings: male rats, 4 days, Altromin C 1061 hypercholesterolemic diet, dose which reduces plasma cholesterol by half relative to controls
Method: 2) Hypocholesterolemic activity
Male rates (160-180 g) are subjected for 4 days to an Altromin C 1061 hypercholesterolemic diet, and concomitantly treated orally with compounds suspended in a 2% solution of Tween 80 in distilled water.
On day 5, the animals, which have not fasted, are anesthethized with ethyl ether and exsanguinated by drawing blood at the abdominal aorta onto EDTA. The blood is immediately centrifuged and the plasma stored at 4° C.
Plasma cholesterol is then assayed by the CHOD-PAP method (Boehringer-Mannheim Ref. 237574). The median effective dose (ED50) corresponds to the dose which reduces the plasma cholesterol concentration by half relative to control animals.

[2] = target: ACAT (acyl-CoA:cholesterol O-acyl-transferase enzyme); experiment: Inhibition of ACAT in vitro; assay type: biochemical, rat; settings: technique of H. Chautan et al.
From the text: The compounds were studied for their inhibitory effect on ACAT and hypocholesterolemic effect in rats, on the one hand, and for their antioxidant effect, on the other hand.

[3] = Rattus norvegicus, po, 96 h, read-out: ED50

Row | Compound | IC50 [1] [nM] | IC50 (Human LDL) [nM] | ED50 (plasma cholesterol; [3]) [mg/kg] | IC50 [2] [nM] | ED50 (plasma cholesterol; oral) [mg/kg]
1 | Vitamin E [reference compound] | 2300 | 10000 | – | – | –
2 | CCCCCCCCCCC(C)(C)C(=O)Nc1c(OC)cc(OC)cc1OC [CI 976, reference compound] | > 10000 | 100000 | 8.3 | – | –
3 | Cc1cc(NC(=O)C(C)(C)Oc2ccc(Cl)cc2)c(C)c(C)c1O [Compound 11, 2',3',5'-Trimethyl-4'-hydroxy-α-(p-chlorophenoxy)isobutyranilide] | – | – | – | 1100 | –
4 | CCCCCCCCCCCCSC(CC)C(=O)Nc1cc(C)c(O)c(C)c1C (stereo not drawn) [Compound 3, 2',3',5'-Trimethyl-4'-hydroxy-α-(dodecylthio)butyranilide] | > 10000 | – | 4 | 310 | –
5 | CCCCCCCCCCCCSC(CCCC)C(=O)Nc1cc(C)c(O)c(C)c1C (stereo not drawn) [Compound 4, 2',3',5'-Trimethyl-4'-hydroxy-α-(dodecylthio)hexananilide] | 500 | 10000 | 0.5 | 160 | –
6 | CCCCCCCCCCCCSC(C(=O)Nc1cc(C)c(O)c(C)c1C)c1ccc(OC)cc1 (stereo not drawn) [Compound 14, 2',3',5'-Trimethyl-4-hydroxy-α-dodecylthio-α-(p-methoxyphenyl)acetanilide] | – | – | 1 | – | –
7 | CCCCCCCN(CCCCCSc1nc(-c2ccccc2)c(-c2ccccc2)[nH]1)C(=O)Nc1ccc(F)cc1F [DUP 128, reference compound] | > 10000 | 30000 | 1.1 | – | –
8 | CCCCCCCCCCCCSC(C(=O)Nc1cc(C)c(O)c(C)c1C)C(C)C (stereo not drawn) [Compound 5, 2',3',5'-Trimethyl-4'-hydroxy-α-(dodecylthio)isovaleranilide] | 5000 | – | 1 | 630 | –
9 | CCCCCCCCCCCC[S+]([O-])C(C)(C)C(=O)Nc1cc(C)c(O)c(C)c1C (stereo not drawn) [Compound 12, 2',3',5'-Trimethyl-4'-hydroxy-α-(dodecylsulfinyl)bobutyranilide] | – | 3000 | – | – | –
10 | CCCCCCCCCCCCSC(C(=O)Nc1cc(C)c(O)c(C)c1C)c1ccccc1 (stereo not drawn) [Compound 7, 2',3',5'-Trimethyl-4'-hydroxy-α-dodecylthio-α-phenylacetanilide] | 600 | 13000 | 0.2 | – | –
11 | CCCCCCCCCCCCSC(C)(C)C(=O)Nc1cc(C)c(O)c(C)c1C [Compound 8, 2',3',5'-Trimethyl-4'-hydroxy-α-(dodecylthio)isobutyranilide] | 3000 | – | 10 | 190 | –
12 | Cc1cc(NC(=O)C(C)(C)Sc2ccc(Cl)cc2)c(C)c(C)c1O [Compound 9, 2',3',5'-Trimethyl-4'-hydroxy-α-(p-chlorophenylthio)isobutyranilide] | – | – | – | 1120 | –
13 | CCCCCCCCCCCCSC(CCC)C(=O)Nc1cc(C)c(O)c(C)c1C (stereo not drawn) [Compound 6, 2',3',5'-Trimethyl-4'-hydroxy-α-(dodecylthio)valeranilide] | 300 | – | 1 | 110 | –
14 | CCCCCCCCCCCCSC(C(=O)Nc1cc(C)c(O)c(C)c1C)c1ccccc1 (single isomer, unassigned; (+)) [Compound 16, (+)-2',3',5'-Trimethyl-4'-hydroxy-α-dodecylthio-α-phenylacetanilide] | – | 4000 | – | – | 0.15
15 | CCCCCCCCCCCCSCC(=O)Nc1cc(C)c(O)c(C)c1C [Compound 2, 2',3',5'-Trimethyl-4'-hydroxy-α-(dodecylthio)acetanilide] | 5000 | – | > 10 | 300 | –
